For data set [1], the target named is T1, Cytohesin-3 (Mus musculus) (UniProt O08967).
T1 sequence (whole entry): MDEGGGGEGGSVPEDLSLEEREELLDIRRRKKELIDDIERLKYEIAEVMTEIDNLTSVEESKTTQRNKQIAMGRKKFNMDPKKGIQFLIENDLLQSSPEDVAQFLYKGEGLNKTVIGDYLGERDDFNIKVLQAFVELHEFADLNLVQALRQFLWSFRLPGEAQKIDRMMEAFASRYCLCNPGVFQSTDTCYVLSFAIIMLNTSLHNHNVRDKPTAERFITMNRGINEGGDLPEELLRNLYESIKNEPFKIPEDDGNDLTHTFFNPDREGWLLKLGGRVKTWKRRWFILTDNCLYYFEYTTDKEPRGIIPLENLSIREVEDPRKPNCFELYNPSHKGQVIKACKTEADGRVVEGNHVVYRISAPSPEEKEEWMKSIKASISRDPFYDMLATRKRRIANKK
Description: Antagonist activity at mouse GRP1-PH domain (1 to 127 residues) assessed as reduction in PI(3,4,5)P3/GRP1-PH interaction at 50 uM after 30 mins by competitive SPR analysis relative to control. (In general: In SPR one partner is held on a chip, and binding of the other changes the refractive index at the surface.)

Data set [2] concerns the target T2, RAC-alpha serine/threonine-protein kinase (Homo sapiens, UniProt P31749). As to the kind of experiment: Antagonist activity at human AKT1-PH domain (1 to 121 residues) assessed as reduction of AKT1-PH interaction with PC/PE/PS/PI(3,4,5)P3 at 50 uM after 30 mins by competitive SPR analysis relative to control.
Data set [3] is described as follows: Effect on membrane fluidity in PC/PE/PS liposome assessed as DPH probe anisotropy changes at 15 uM incubated for 30 mins by fluorescence anisotropic analysis. The data set is classed as ADME. The conditions noted are these: artificial membrane, 0.5 h.
Data set [4] concerns the target T2, RAC-alpha serine/threonine-protein kinase. As to the kind of experiment: Antagonist activity at human AKT1-PH domain (1 to 121 residues) assessed as reduction of AKT1-PH interaction with PC/PE/PS/PI(3,4,5)P3 after 30 mins by competitive SPR analysis.
The target of data set [5] is T3, Cytohesin-3 (Mus musculus, UniProt O08967).
T3 sequence (O08967 whole entry): T1 sequence (whole entry)
As to the kind of experiment: Antagonist activity at mouse GRP1-PH domain (1 to 127 residues) assessed as reduction in PI(3,4,5)P3/GRP1-PH interaction after 30 mins by competitive SPR analysis.

Data set [6] is described as follows: Cytotoxicity against human MDA-MB-231 cells assessed as inhibition of cell proliferation at 1 to 100 uM after 48 hrs by MTT assay. The data set is classed as cell-based. The conditions noted are these: read-out: %max.
Data set [7] is described as follows: Effect on membrane fluidity in PC/PE/PS liposome assessed as NBD-PE probe anisotropy changes at 15 uM incubated for 30 mins by fluorescence anisotropic analysis. Format: ADME. The conditions noted are these: artificial membrane, 0.5 h.
Data set [8] deals with T4, Tyrosine-protein kinase BTK (Homo sapiens, UniProt Q06187). As to the kind of experiment: Antagonist activity at human BTK-PH domain (2 to 170 residues) assessed as reduction in PI(3,4,5)P3/BTK-PH interaction at 50 uM after 30 mins by competitive SPR analysis relative to control.
Data set [9] has as its target T4, Tyrosine-protein kinase BTK. Description: Antagonist activity at human BTK-PH domain (2 to 170 residues) assessed as reduction in PI(3,4,5)P3/BTK-PH interaction after 30 mins by competitive SPR analysis.
Data set [10] deals with T2, RAC-alpha serine/threonine-protein kinase. As to the kind of experiment: Binding affinity to human AKT1-PH domain assessed as entropy change by isothermal titration calorimetric analysis. Background: In ITC the heat of successive injections is recorded.
Data set [11] in a line: Effect on surface charge of PC/PE/PS/PI(3,4,5)P3 liposome by measuring zeta-potential by light scattering spectrometric analysis. The data set is classed as physicochemical. The conditions noted are these: artificial membrane.
In data set [12] the target is T5, 1-phosphatidylinositol 4,5-bisphosphate phosphodiesterase delta-1 (Rattus norvegicus, UniProt P10688).
T5 sequence (P10688 whole entry): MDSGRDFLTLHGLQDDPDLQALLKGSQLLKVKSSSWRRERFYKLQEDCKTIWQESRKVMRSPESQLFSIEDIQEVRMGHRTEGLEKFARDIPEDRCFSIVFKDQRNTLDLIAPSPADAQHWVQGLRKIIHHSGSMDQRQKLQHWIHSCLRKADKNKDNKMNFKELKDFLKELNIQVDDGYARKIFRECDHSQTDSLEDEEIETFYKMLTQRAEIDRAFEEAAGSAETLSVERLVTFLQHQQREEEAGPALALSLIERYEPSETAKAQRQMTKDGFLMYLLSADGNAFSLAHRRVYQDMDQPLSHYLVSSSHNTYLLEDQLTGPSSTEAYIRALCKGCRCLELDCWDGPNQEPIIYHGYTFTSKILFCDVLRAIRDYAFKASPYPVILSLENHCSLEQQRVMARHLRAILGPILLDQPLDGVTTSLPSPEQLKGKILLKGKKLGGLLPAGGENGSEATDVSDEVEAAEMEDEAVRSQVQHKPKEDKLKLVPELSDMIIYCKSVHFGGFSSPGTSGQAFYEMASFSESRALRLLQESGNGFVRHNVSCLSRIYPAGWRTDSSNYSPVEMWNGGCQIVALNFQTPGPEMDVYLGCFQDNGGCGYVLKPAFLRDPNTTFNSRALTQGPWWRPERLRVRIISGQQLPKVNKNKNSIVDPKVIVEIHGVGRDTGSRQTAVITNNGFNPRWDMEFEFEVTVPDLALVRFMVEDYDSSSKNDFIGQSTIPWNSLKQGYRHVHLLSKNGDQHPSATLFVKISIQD
Description: Antagonist activity at rat PLCdelta1-PH domain assessed as reduction in PI(4,5)P2/PLCdelta1-PH interaction after 30 mins by competitive SPR analysis.

The target of data set [13] is T2, RAC-alpha serine/threonine-protein kinase. As to the kind of experiment: Binding affinity to human AKT1-PH domain assessed as change in beta-sheet content at 1:3 molar ratio of protein to compound by CD spectra analysis.
The target is the same in data set [14]. As to the kind of experiment: Induction of human AKT1-PH aggregration assessed as mean hydrodynamic diameter after 10 mins dynamic light scattering assay.
In data set [15] the target is Pleckstrin homology domain-containing family A member 1 (Homo sapiens, UniProt Q9HB21). As to the kind of experiment: Antagonist activity at human Tapp1-PH domain (180 to 305 residues) assessed as reduction in PI(3,4)P2/Tapp1-PH interaction after 30 mins by competitive SPR analysis.
Data set [16] has as its target T2, RAC-alpha serine/threonine-protein kinase. As to the kind of experiment: Antagonist activity at human AKT1-PH domain (1 to 121 residues) assessed as reduction in PI(3,4,5)P3/AKT1-PH interaction by FRET analysis.
For data set [17] the target is unchanged. As to the kind of experiment: Antagonist activity at GST-tagged human AKT1-PH domain (1 to 121 residues) assessed as reduction in PC/PE/PS/PI(3,4,5)P3/AKT1-PH interaction at 50 uM by liposome pull-down assay.
The target is the same in data set [18]. As to the kind of experiment: Inhibition of AKT1 phosphorylation at Thr-308 in human MDA-MB-231 cells at 25 uM after 48 hrs by immunoblot analysis. The data set is classed as cell-based. (In western blotting, separated proteins are transferred to a membrane and probed.)
Data set [19] has the same target. As to the kind of experiment: Binding affinity to human AKT1-PH domain assessed as enthalpy change by isothermal titration calorimetric analysis.
The nature of data set [20]: Cytotoxicity against human MDA-MB-231 cells assessed as inhibition of cell proliferation at 100 uM after 48 hrs by MTT assay. The data set is classed as cell-based.

Calls of active or inactive are those of the source. No cut-off for these calls is given here.

T2 sequence (P31749 whole entry, the tested form may be a part): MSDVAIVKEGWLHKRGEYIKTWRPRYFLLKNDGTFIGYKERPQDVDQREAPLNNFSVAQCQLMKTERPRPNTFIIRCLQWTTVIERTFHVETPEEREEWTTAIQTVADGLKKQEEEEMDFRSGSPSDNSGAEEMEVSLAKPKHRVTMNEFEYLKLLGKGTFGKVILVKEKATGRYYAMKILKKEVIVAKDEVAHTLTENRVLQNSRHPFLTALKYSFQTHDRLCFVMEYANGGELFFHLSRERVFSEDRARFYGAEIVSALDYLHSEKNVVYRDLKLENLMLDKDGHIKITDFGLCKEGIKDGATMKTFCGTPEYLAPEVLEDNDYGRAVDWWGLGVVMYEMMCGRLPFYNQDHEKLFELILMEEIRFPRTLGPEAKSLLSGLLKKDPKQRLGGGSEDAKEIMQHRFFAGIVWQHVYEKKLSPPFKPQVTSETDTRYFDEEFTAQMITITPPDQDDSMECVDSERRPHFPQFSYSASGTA
T4 sequence (Q06187 whole entry, the tested form may be a part): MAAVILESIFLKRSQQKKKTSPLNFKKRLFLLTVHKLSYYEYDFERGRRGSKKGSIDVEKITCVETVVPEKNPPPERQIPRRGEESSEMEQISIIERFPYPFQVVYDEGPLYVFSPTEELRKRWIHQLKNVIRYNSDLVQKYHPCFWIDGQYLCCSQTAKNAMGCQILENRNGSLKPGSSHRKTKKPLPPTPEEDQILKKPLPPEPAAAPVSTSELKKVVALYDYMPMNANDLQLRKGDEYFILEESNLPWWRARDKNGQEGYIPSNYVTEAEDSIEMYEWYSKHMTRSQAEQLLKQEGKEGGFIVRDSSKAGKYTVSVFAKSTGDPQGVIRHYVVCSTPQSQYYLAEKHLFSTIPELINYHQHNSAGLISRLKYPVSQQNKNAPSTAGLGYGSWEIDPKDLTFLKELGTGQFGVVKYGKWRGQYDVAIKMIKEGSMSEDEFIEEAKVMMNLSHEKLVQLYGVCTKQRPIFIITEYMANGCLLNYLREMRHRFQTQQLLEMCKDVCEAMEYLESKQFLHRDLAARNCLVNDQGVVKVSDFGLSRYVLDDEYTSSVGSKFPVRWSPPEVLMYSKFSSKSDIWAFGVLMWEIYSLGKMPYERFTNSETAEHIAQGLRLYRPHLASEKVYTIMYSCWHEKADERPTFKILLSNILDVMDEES
Sequence of Pleckstrin homology domain-containing family A member 1 (Q9HB21 whole entry, the tested form may be a part): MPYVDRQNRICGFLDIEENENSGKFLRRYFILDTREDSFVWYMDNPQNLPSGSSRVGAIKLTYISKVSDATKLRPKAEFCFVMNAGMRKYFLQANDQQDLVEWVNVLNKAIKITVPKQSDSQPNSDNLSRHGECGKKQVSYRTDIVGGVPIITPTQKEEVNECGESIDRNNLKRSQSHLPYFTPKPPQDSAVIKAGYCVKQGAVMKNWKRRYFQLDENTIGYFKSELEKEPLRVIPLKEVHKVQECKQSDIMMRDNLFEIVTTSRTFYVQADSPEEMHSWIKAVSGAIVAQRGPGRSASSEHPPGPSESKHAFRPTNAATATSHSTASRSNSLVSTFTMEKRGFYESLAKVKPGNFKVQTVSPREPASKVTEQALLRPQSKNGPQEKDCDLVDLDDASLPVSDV

Broadly, the inhibition is the percentage by which the read-out fell short of the control. One may read the IC50 as the midpoint of a concentration-inhibition curve. As for `N=C(N/C(=N/O)c1nonc1N)c1ccccc1`, the inhibition amounted to 55% in data set [1] and 54% in data set [2]. The Activity result in data set [3] was “Not Active”; in [7], “Active”. The results for the IC50 in data set [4] and in [5] were 7.19 µM and 11.5 µM, respectively. Besides, the Emax at 48 h in data set [6] turned out to be 20%.

For `N=C(N/C(=N/O)c1nonc1N)c1ccccc1Br`, in [2], the inhibition worked out at 80%. The Activity result in data set [3] is listed as “Not Active”; in [7] it was “Active”. Besides, the IC50 in [4] stood at 16.4 µM. Further, in data set [6], the Emax at 48 h amounted to 20%.

`N=C(N/C(=N/O)c1nonc1N)c1ccccc1N`: the results for the inhibition in data set [1], in [8] and in data set [2] were 59%, 79% and 74%, respectively. Besides, the Activity entry in [3] was “Not Active”; in data set [7], “Active”. In addition, the IC50 in data set [4] was found to be 8.61 µM; in data set [5], 16.6 µM; in [9], 3.18 µM. For the same compound, the Emax at 48 h in data set [6] is 20%.

On to `N=C(N/C(=N/O)c1nonc1N)N1CCCN=C1N`, for which the result in data set [10], in [13] and in [19] was Active. For the same compound, the inhibition is 67% in [1]; 11% in [8]; 92% in [2]; “Dose-dependent effect” in data set [16]; “Dose-dependent effect” in data set [4]. The Activity entry in data set [11] was “Not Active”; in data set [14], 190 nm; in data set [3], “Not Active”; in [7], “Active”. The IC50 in [12] turned out to be 28 µM; in data set [15], 5 µM; in data set [4], 3.23 µM; in data set [5], 11.5 µM; in [9], 46.5 µM. In addition, the inhibition result in data set [17] and in data set [18] was “Active” in each case. The Emax at 48 h in [6] stood at 20%.

Consider `N=C(N)NC(=N)N/C(=N/O)c1nonc1N`, for which the result in data set [10], in data set [13] and in data set [19] was Active. For the same compound, the inhibition is 56% in [1]; 40% in data set [8]; 95% in data set [2]; “Dose-dependent effect” in data set [16]; “Dose-dependent effect” in [4]. Moreover, in data set [20], the inhibition at 48 h, 100 µM worked out at 10%. Besides, the Activity result in data set [11] is “Not Active”; in data set [14] it was 190 nm; in [3], “Not Active”; in [7], “Active”. The IC50 was 54 µM in data set [12]; 28 µM in [15]; 1.85 µM in data set [4]; 24.9 µM in data set [5]; 10.9 µM in data set [9]. Further, the inhibition entry in [17] was “Active”.

Values taken from ChEMBL document CHEMBL3763051, “Inhibition of phosphatidylinositol-3,4,5-trisphosphate binding to the AKT pleckstrin homology domain by 4-amino-1,2,5-oxadiazole derivatives” (Medchemcomm, 2015).
